# Tested on: MDA-MB-231
# Assay: Immunoblotting of apoptosis proteins
# Type: cell-based
# From the text: Apoptosis is a common cell death pathway for chemotherapeutics which can be characterized by distinct morphological features and biochemical mechanisms.[88,89] Apoptosis occurs normally in healthy cells to maintain a healthy population of cells during aging or development of tissues. Some transition metal-based drugs can trigger apoptosis due to […] of p53 dependant pathway (a tumour suppressor gene).[90,91] Populations of apoptotic cells can be determined by containing cells with Annexin V and PI.[92,93] Cells undergoing apoptosis contain ample amount of phosphatidylserine (PS) which can be bound by Annexin V. The Annexin is then labelled with FITC, a green fluorogenic dye which can be visualized by fluorescence activated cell sorting (FACS). […]
# positive control. When ready for analysis, the media were removed and the wells washed with 5 mL of PBS. […] The cells were resuspended in 2 mL of fresh media, counted, and reconstituted to a concentration of 1 x 10^5 cells/mL. […]
# Compound 2a was prepared as a stock in DMSO and added to the respective wells at the specified concentrations of 0.1, 1, and 10 µM and treated for 12 h. […] The samples were cooled and stored at −20 °C until ready for use. […] Immuno complexes were detected with the ECL detection reagent (BioRad) and analyzed using a BioRad imager with a chemiluminescence filter. […]
structure (smiles),measurement,setting,value
C[N+](C)=C1[S][Au-2]2([S]1)[c]1ccccc1Cc1cccc[n+]12.F[P-](F)(F)(F)(F)F (centres unmarked) [2a],Cleaved PARP expression (immunoblot),"MDA-MB-231, 0.1, 1, 10 µM, 12 h",unaltered protein expression
same,Caspase 3 and cleaved caspase 3 expression (immunoblot),"MDA-MB-231, concentration dependent (0.1, 1, 10 µM, 12 h)",upregulated

# — PMC8162438, “Cancer cell-selective modulation of mitochondrial respiration and metabolism by potent organogold(III) dithiocarbamates” (Chemical Science, 2020)
